Where two headings read alike, the source gives them in different places. Some results are limits rather than exact numbers.

Holding throughout (type): biochemical
For assay [1], the target named is T1, VEAT (vesicular excitatory amino acid transporter) (Mus musculus, UniProt Q8BN82).
T1 construct: gene Slc17a5; recombinant, expressed in insect cells or E. coli, Ni-NTA purified, reconstituted in asolectin liposomes
T1 sequence (Q8BN82 1-495): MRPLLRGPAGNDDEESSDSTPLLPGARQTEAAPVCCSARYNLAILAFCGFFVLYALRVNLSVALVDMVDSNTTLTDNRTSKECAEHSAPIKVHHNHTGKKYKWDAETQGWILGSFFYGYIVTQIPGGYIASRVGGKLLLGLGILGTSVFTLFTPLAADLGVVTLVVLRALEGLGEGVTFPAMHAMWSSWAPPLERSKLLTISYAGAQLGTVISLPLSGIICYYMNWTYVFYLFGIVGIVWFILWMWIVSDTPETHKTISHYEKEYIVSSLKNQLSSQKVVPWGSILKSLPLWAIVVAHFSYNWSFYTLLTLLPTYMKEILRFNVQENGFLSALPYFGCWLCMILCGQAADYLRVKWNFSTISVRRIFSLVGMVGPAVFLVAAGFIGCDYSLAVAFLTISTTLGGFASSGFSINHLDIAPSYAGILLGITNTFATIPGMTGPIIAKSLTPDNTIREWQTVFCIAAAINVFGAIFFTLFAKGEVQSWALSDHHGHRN
The assay is described as follows: inhibition of valinomycin-evoked radiolabelled substrate uptake into proteoliposomes. From the text:
inhibition of valinomycin-evoked radiolabelled substrate uptake into proteoliposomes on VEAT (vesicular excitatory amino acid transporter)

Assay [2] addresses T2, VMAT2 (vesicular monoamine transporter 2) (Rattus norvegicus, UniProt Q01827).
T2 construct: gene Slc18a2; recombinant, expressed in insect cells or E. coli, Ni-NTA purified, co-reconstituted with bacterial F-ATPase in liposomes
Kind of assay: inhibition of ATP-driven radiolabelled substrate uptake into proteoliposomes with F-ATPase. An excerpt: inhibition of ATP-driven radiolabelled substrate uptake into proteoliposomes with F-ATPase on VMAT2 (vesicular monoamine transporter 2)

For assay [3], the target named is T3, VAChT (vesicular acetylcholine transporter) (Homo sapiens, UniProt Q16572).
T3 construct: gene SLC18A3; recombinant, expressed in insect cells or E. coli, Ni-NTA purified, co-reconstituted with bacterial F-ATPase in liposomes
T3 sequence (Q16572 1-532): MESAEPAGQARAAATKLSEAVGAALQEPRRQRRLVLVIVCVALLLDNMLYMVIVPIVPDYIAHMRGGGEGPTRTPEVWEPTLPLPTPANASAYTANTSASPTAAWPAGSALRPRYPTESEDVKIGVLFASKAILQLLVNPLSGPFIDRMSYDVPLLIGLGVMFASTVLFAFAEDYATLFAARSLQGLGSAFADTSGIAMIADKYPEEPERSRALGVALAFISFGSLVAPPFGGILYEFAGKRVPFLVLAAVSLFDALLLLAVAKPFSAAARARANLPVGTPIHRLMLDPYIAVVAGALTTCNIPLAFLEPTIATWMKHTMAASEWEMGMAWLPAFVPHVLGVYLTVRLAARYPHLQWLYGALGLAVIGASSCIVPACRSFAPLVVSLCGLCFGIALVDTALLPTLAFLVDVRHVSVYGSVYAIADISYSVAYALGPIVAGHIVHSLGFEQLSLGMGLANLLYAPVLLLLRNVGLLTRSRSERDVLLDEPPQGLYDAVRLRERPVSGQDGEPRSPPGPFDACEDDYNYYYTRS
The description is as above. From the text:
inhibition of ATP-driven radiolabelled substrate uptake into proteoliposomes with F-ATPase on VAChT (vesicular acetylcholine transporter)

Assay [4] has as its target T4, VNUT (vesicular nucleotide transporter, SLC17A9 protein) (Homo sapiens, UniProt Q9BYT1).
T4 construct: recombinant, expressed in insect cells or E. coli, octylglucoside-solubilized, Ni-NTA purified, reconstituted in asolectin liposomes
T4 sequence (Q9BYT1 1-436): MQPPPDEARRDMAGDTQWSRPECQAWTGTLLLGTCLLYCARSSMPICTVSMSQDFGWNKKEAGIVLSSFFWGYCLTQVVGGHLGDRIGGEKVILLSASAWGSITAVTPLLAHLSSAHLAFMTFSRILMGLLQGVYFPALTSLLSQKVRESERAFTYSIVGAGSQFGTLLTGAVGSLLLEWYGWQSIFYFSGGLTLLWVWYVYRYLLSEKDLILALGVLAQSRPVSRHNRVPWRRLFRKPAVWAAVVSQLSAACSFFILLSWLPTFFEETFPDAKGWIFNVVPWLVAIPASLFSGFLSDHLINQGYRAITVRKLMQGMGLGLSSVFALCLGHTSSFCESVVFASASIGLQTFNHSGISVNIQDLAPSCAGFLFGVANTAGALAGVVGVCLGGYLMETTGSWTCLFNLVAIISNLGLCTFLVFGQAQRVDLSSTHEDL
Kind of assay: inhibition of valinomycin-evoked radiolabelled substrate uptake into proteoliposomes.

For assay [5], the target named is T5, VGAT (vesicular GABA transporter) (Rattus norvegicus, UniProt O35458).
T5 construct: gene Slc32a1; recombinant, expressed in insect cells or E. coli, Ni-NTA purified, reconstituted in asolectin liposomes
T5 sequence (O35458 1-525): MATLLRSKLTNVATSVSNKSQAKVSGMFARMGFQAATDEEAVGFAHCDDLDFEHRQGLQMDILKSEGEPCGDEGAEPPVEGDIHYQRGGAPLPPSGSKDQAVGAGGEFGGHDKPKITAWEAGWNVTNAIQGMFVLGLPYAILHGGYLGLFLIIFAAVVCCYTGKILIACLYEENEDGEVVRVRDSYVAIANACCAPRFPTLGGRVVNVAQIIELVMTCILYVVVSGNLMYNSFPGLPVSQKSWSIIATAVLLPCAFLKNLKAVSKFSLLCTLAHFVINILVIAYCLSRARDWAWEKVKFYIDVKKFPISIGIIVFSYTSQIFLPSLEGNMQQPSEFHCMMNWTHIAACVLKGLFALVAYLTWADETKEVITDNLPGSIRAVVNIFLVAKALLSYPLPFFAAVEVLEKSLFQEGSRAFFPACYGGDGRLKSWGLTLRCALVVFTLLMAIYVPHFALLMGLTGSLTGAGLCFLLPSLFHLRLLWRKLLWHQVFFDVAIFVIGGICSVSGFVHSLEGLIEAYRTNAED
The assay is described as above. An excerpt: inhibition of valinomycin-evoked radiolabelled substrate uptake into proteoliposomes on VGAT (vesicular GABA transporter)

Setting [6] is: read-out: IC50 (μmol/L) / Acetoacetate.
[7] abbreviates: read-out: IC50 (μmol/L) / Glyoxylate.

T2 sequence (Q01827 whole entry): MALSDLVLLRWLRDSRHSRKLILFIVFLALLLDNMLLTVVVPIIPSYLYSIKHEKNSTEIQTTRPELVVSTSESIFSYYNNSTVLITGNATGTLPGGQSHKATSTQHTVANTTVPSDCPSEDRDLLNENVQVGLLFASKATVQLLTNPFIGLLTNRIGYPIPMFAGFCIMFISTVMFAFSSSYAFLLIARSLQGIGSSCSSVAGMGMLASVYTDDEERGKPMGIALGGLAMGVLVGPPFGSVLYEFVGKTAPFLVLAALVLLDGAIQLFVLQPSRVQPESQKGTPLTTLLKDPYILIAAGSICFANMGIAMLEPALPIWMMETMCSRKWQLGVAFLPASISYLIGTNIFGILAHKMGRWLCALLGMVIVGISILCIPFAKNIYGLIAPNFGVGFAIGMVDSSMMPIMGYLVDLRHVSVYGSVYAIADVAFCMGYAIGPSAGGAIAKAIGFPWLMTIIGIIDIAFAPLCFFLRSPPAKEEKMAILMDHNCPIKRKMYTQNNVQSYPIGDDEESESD

With `CC(=O)CC(=O)O` [acetoacetate], the IC50 in assay [1] (setting [6]) is 130 µmol/L; in assay [2] it was more than 10000 µM; in assay [3], more than 10000 µM; in assay [4] (setting [6]) it was 190 µmol/L; in assay [5], more than 10000 µM.

Consider `O=CC(=O)O` [glyoxylate], for which the IC50 in assay [1] (setting [7]) is 52 µmol/L; in assay [2], more than 10000 µM; in assay [3], more than 10000 µM; in assay [4] (setting [7]), 4.1 µmol/L; in assay [5], more than 10000 µM.

For the origin of these results see paper PMC4208647, “Essential role of vesicular nucleotide transporter in vesicular storage and release of nucleotides in platelets” (Physiological Reports, 2014).
